Assay results: article PMC3673938, “Two Distinct Calmodulin Binding Sites in the Third Intracellular Loop and Carboxyl Tail of Angiotensin II (AT1A) Receptor” (PLoS ONE, 2013)
One block for each substance: values may come before it. Where no end group is shown, it is not given here.

Tests used:
[1] = system: purified bovine brain CaM; assay: GST-fusion protein pull-down with purified bovine brain CaM; assay type: binding; settings: for relative binding efficiency for CaM versus wild type (in words): GST pull-down with fixed concentrations, data not shown; for interaction with purified CaM (pull-down, in words) / relative binding efficiency for CaM: 50 pmol GST-fusion protein; for interaction with purified CaM (pull-down, in words): 50 pmol purified bovine CaM, 100 mM Tris-HCl pH 7.5, Ca2+ dependent (0.1 mM CaCl2 vs 1 mM EGTA), repeated five times; for relative binding efficiency for CaM: purified bovine brain CaM, 100 mM Tris-HCl pH 7.5, 0.1 mM CaCl2, immunoblot density ratio, 5 independent experiments
Method: (§1) GST-fusion proteins were expressed in E. coli BL21 strain cells, and purified by affinity chromatography using immobilized glutathione sepharose 4B beads. Proteins were eluted by reduced glutathione in 50 mM Tris-HCl buffer (pH 8.0), and then concentrated with Centricon filters with 3 kDa MW cut-off. The eluted proteins were either used immediately or stored at −80°C for future use. For GST-fusion protein pull-down assays, fusion proteins were incubated with either cell lysates or purified protein(s) at 4°C for 3 hours, following which glutathione-sepharose 4B beads were added and incubation continued at 4°C for 1 hour. The beads were then recovered by brief centrifugation, followed by 4 washes with the corresponding incubation buffer. The fusion proteins and the proteins to which they were bound were then separated by SDS-PAGE, and identified by staining with Coomassie blue or by immunoblot.
Figure 1 Interactions of the i3 loop and carboxyl tail of the AT1A receptor with CaM. A, Construction of GST-fusion proteins. Upper panel illustrates a schematic structure of the AT1A receptor and constructs of GST-fusion proteins of the i3 loop and carboxyl tail of the receptor. The numbers represent positions of amino acids in the receptor. The GST-fusion proteins were constructed, expressed in E. coli, purified by using gluthathione-sepharose 4B beads, separated by SDS-PAGE, and stained by Coomassie blue (lower panel). B. Interactions of the i3 loop or carboxyl tail of AT1A receptor with CaM in rat brain lysates (upper panel) and with purified bovine brain CaM (lower panel). 50 pmol of GST-fusion proteins were incubated with 500 µg of rat brain lysates in 250 µl of buffer containing 20 mM Tris-HCl, 70 mM NaCl, pH 7.5 with 1 mM EGTA or 0.1 mM CaCl2. Interacting protein complexes were pulled down by gluthathione-sepharose 4B beads, and visualized by immunoblot with a specific anti-CaM antibody. The same methods were applied to interactions with pure bovine CaM (50 pmol), except that the buffer contained 100 mM Tris-HCl (pH 7.5). These experiments were repeated five times with similar results.
Figure 3 CaM binding sites in the i3 loop and carboxyl tail of the AT1A receptor. A, Schematic representation of constructs of GST-fusion proteins. Four GST-fusion proteins containing truncated peptides in the i3 loop and carboxyl tail of the receptor were constructed, including GST-N-terminus of the i3 loop (GST-ATi3N), GST-C-terminus of the i3 loop (GST-ATi3C), GST-N-terminus of carboxyl tail (GST-ATctN) and GST-C-terminus of carboxyl tail (GST-ATctC). The numbers under the first or the last residues represent amino acid positions in the receptor. B, Interaction of GST-fusion proteins with CaM. The GST-fusion proteins (50 pmol) were incubated with purified bovine CaM (50 pmol) in 250 µl of buffer containing 100 mM Tris-HCl (pH 7.5) with 0.1 mM CaCl2. Proteins were pulled down by gluthathione-sepharose 4B beads, following which immunoblots were probed with a specific anti-CaM antibody. These experiments were repeated five times with similar results.
Figure 5 Effect of point mutations in ATi3N or ATctN on their interactions with CaM. A. Modeled structures of CaM-ATi3(214–231) and CaM-ATct(302–317). The complexes of CaM and CaM binding motif in the i3 loop ATi3(214–231) or the carboxyl terminal tail ATct(302–317) of the receptor were modeled as described in Experimental Procedures. The target peptides are colored in red. […] Calcium atoms are shown as orange spheres. The N- and C- termini of CaM are also labeled. Helices and sheets in CaM are colored in green and yellow, respectively. B. Effect of point mutations at ATi3N or ATctN on their interaction with CaM. […]

[2] = target: T1, CaM purified from bovine brain (dansyl-CaM) (Bos taurus, UniProt P62157); assay: Dansyl-CaM fluorescence emission spectrum shift; assay type: binding; settings: dansyl-CaM 106 nM, 500 nM peptide + 0.1 mM calcium, 1 hour room temperature; shifted from 521 nm (EGTA); three experiments
T1 construct: CaM and G protein βγ subunits purified from bovine brain; purchased Calbiochem (La Jolla, CA); host or cells: bovine brain (tissue-purified)
Method: Dansyl-CaM was synthesized according to a standard method, [46], [47], [48]. 500 µl of CaM purified from bovine brain (2 mg/ml in a buffer containing 20 mM NH4HCO3, pH 7.4 and 1 mM CaCl2) was mixed with 1 µl of dansyl chloride (100 mg/ml in acetone) at 4°C C for 1 hour with agitation. The mixture was then applied to a Centricon 4 concentrator with 10 kDa MW cut-off to remove the unincorporated dye. Efficiencies of dansylation (0.18–0.34 mol of dansyl moiety per mol of CaM) were calculated by measurement of absorption at 320 nm using a molar extinction coefficient of 3400 M-1cm-1. For conformational studies of dansyl-CaM, fluorescence was monitored at room temperature with a SLMAminco model 8000 series 2 spectrometer (Spectronic Instruments, Rochester, NY) at an excitation wavelength of 340 nm, and emission wavelengths from 425 to 600 nm.
Figure 4 CaM binding motifs in the i3 loop and carboxyl terminal tail of the AT1A receptor. A, Alignment of CaM binding motifs. […] Fluorescence emission spectra of dansyl-CaM (106 nM) at an emission wavelength of 425–600 nm were measured in the presence of 10 mM EGTA, 0.1 mM calcium, 500 nM ATi3 (214–231) +0.1 mM calcium, and 500 nM ATct (302–317) +0.1 mM calcium. […] Spectra were corrected for background buffer fluorescence. […]

[3] = system: CaM in rat brain lysates; assay: GST-fusion protein pull-down from rat brain lysates; assay type: binding; settings: 50 pmol GST-fusion protein, 500 µg rat brain lysates, 20 mM Tris-HCl, 70 mM NaCl, pH 7.5; Ca2+ dependent; repeated five times
Method: as §1
Figure 1 Interactions of the i3 loop and carboxyl tail of the AT1A receptor with CaM. A, Construction of GST-fusion proteins. Upper panel illustrates a schematic structure of the AT1A receptor and constructs of GST-fusion proteins of the i3 loop and carboxyl tail of the receptor. The numbers represent positions of amino acids in the receptor. […]

[4] = system: G protein βγ subunits; assay: GST-fusion protein pull-down of G protein βγ subunits, with or without CaM; assay type: binding, bovine; settings: 2 pmol GST-fusion protein, 2 pmol Gβγ, CaM pre-incubated 30 minutes, 20 mM Tris-HCl, 70 mM NaCl, 0.1 mM CaCl2, pH 7.5; 4 or 5 experiments
Method: as §1
Figure 7 Effect of CaM on G protein βγ subunit interaction with wild ATi3 or ATct. A. Interaction of G protein βγ subunits and ATi3 or ATct. 50 pmol of GST-ATi3(213–242) or GST-ATct(297–359) were incubated with different amounts of G protein Gβγ subunits in a buffer containing 20 mM Tris-HCl and 70 mM NaCl (pH 7.5). Interactions were assessed by GST-fusion protein pull-down assay, and blots were probed with a specific antibody against Gβ subunits (upper panel). 1 pmol of Gβγ subunit was interacted with different amounts of GST-ATi3(213–242) and GST-ATct(297–359). Interaction was assessed by immunoblot against Gβ subunits (lower panel). B. CaM inhibits the interaction between G protein Gβγ subunits and ATi3 or ATct. 2 pmol of GST-ATi3(213–242) or GST-ATct(297–359) were incubated with different concentrations of pure bovine brain CaM for 30 minutes in a buffer (20 mM Tris-HCl and 70 mM NaCl with 0.1 mM CaCl2, pH 7.5) following which 2 pmol of Gβγ subunits were added and incubated for 1 hour. GST-fusion proteins and their interacting proteins were pulled down by gluthathione-sepharose 4B beads, and subjected to immunoblot. Blots were probed with a specific antibody against Gβ subunits. The summary graph represents means ± S.E. from four independent experiments. C. Effects of CaM on the interactions between G protein βγ subunits and mutated ATi3 and ATct. The method is same as the described in the Figure 7B, except that we used mutated GST-fusion proteins, GST-ATi3(213–242)W219A, ATct(297–359)F309A, and ATct(297–359)F313A. The summary graph represents mean ± S.E. from 4 or 5 independent experiments.

[5] = system: AT1A receptor-CaM interaction; assay: BRET between AT1A receptor-eYFP and RLuc-CaM / CaM-RLuc in HEK293 cells; assay type: cell-based, Human Embryonic Kidney 293 (HEK293) cells; settings: 100 nM Ang II at 2, 4 and 6 minutes, compared with no Ang II
Method: We first stably transfected HEK293 cells with the AT1A receptor-eYFP vector by using lipofectamine 2000 solution according to the vendor’s (Invitrogen) instructions. […] The co-transfectants were detached with PBS buffer containing 1 mM EDTA, and distributed into 96 well plates at 10^5 cells/well (OptiPlate 96, Greiner Bio-One. Longwood, FL). Fluorescence measurements were acquired using a Victor2 multilabel plate reader (Perkin Elmer Life Sciences, Shelton, CT). […] The emission of light from YFP was measured both before and after stimulation with 100 nM of Ang II.
48 hours later, the cotransfectants were washed with saline pre-warmed at 37°C and calibrated in saline in a 37°C incubator for 30 minutes. […] Control co-transfectants were treated with equal amounts of saline (vehicle).

Substance: GST-ATi3N(213–234)Y215A: Y215A mutant of GST-ATi3N(213–234) ({GST}-TSATLIWKALKKAYEIQKNKPR)
relative binding efficiency for CaM versus wild type (in words) [1]: did not have reduced binding efficiencies

λmax of dansyl-CaM fluorescence emission spectrum in presence of peptide [2]: 486 nm
Substance: SYTLIWKALKKAYEIQKN [ATi3(214–231)]

Gβγ binding to GST-fusion protein in the presence of 2 pmol of CaM [4]: 77%
Gβγ binding to GST-fusion protein in the presence of 10 pmol of CaM [4]: 60%
Substance: GSTATi3(213–242): GST fused to the i3 loop of AT1A receptor, GST-TSYTLIWKALKKAYEIQKNKPRNDDIFRII ({GST}-TSYTLIWKALKKAYEIQKNKPRNDDIFRII)
interaction with purified CaM (pull-down, in words) [1]: associated
association with CaM from rat brain lysates (pull-down, in words) [3]: associated

Substance: ATi3C (235–242): GST-C-terminus of the i3 loop, amino acids 235–242, peptide NDDIFRIT
interaction with purified CaM (pull-down, in words) [1]: no interactions with CaM

relative binding efficiency for CaM [1]: 32 % of wild type
Substance: GSTATi3N(213–234)W219A: W219A mutant of GST-ATi3N(213–234) ({GST}-TSYTLIAKALKKAYEIQKNKPR)

Substance: GST-ATi3N(213–234)L217A: L217A mutant of GST-ATi3N(213–234) ({GST}-TSYTAIWKALKKAYEIQKNKPR)
relative binding efficiency for CaM versus wild type (in words) [1]: did not have reduced binding efficiencies

Substance: ATctC (325–359): GST-C-terminus of carboxyl tail, GST-KSHSSLSTKMSTLSYRPSDNMSSSAKKPASCFEVE ({GST}-KSHSSLSTKMSTLSYRPSDNMSSSAKKPASCFEVE)
interaction with purified CaM (pull-down, in words) [1]: no interactions with CaM

Substance: GST-ATctN(297–324)Y312A: Y312A mutant of GST-ATctN(297–324) ({GST}-LNPLFYGFLGKKFKKAFLQLLKYIPPKA)
relative binding efficiency for CaM versus wild type (in words) [1]: did not have reduced binding efficiencies

Gβγ binding to GST-fusion protein in the presence of 2 pmol of CaM [4]: 95%
Gβγ binding to GST-fusion protein in the presence of 10 pmol of CaM [4]: 94%
Substance: GST-ATi3(W219A): W219A mutant of GST-ATi3(213–242) ({GST}-TSYTLIAKALKKAYEIQKNKPRNDDIFRII)

relative binding efficiency for CaM [1]: 29 % of wild type
Substance: GST-ATctN(297–324)F309A: F309A mutant of GST-ATctN(297–324) ({GST}-LNPLFYGFLGKKAKKYFLQLLKYIPPKA)

Substance: Angiotensin II (DRVYIHPF; Angiotensin-2; UniProt P01019 25-32, looked up) [Ang II, AT1A receptor agonist]
effect on magnitude of the BRET ratio of the co-transfectants [5]: did not alter

Substance: ATctN (297–324): GST-N-terminus of carboxyl tail, GST-LNPLFYGFLGKKFKKYFLQLLKYIPPKA ({GST}-LNPLFYGFLGKKFKKYFLQLLKYIPPKA)
interaction with purified CaM (pull-down, in words) [1]: interact with purified CaM

relative binding efficiency for CaM [1]: 22 % of wild type
Substance: GST-ATctN(297–324)F313A: F313A mutant of GST-ATctN(297–324) ({GST}-LNPLFYGFLGKKFKKYALQLLKYIPPKA)

Substance: ATi3N (213–234): GST-N-terminus of the i3 loop, GST-TSYTLIWKALKKAYEIQKNKPR ({GST}-TSYTLIWKALKKAYEIQKNKPR)
interaction with purified CaM (pull-down, in words) [1]: interact with purified CaM
